The values below come from patent publication US12036208B2, “Methods for treating neurodegenerative disorders” (Alzheon, Inc., priority 2017, dated 2024).

T1 sequence (P05067 672-713 limits assumed): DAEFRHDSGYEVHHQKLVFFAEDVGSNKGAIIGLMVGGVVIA

The assay addresses T1, recombinant human β-Amyloid Peptide (1-42) (Homo sapiens, UniProt P05067).
T1 construct: recombinant human β-Amyloid Peptide (1-42) from BioLegend; purchased BioLegend 843801
The assay can be described thus: Binding assay: mass spectrometry (Q-TOF) of compounds binding to Aβ1-42. The conditions noted are these: 22 pmol/μL β-Amyloid Peptide (1-42), 1100 pmol/μL test compound; direct infusion Q-TOF MS at room temperature. The text has this: The activity of the compounds utilized in the methods described herein can be assayed by measuring the binding of those compounds to β-amyloid. Data acquisition can be performed using a Waters Synapt G2-S quadrupole time of flight mass spectrometer (Q-TOF MS) with traveling wave ion mobility (Waters Corp. 34 Maple Street Milford, MA 01757). The data can be acquired using the systems sensitivity mode to allow for the detection of the less abundant oligomers. Samples can be infused at room temperature due to lower solubility of the peptide at body temperature ([…]).
One mg of compound can be reconstituted in 1 mL of Fisher Optima LC/MS grade water (cat: W6-1) and vortexed vigorously for 2 minutes until completely dissolved. The sample can be then diluted to create a 220 pmol/μL, 2200 pmol/μL, and 22,000 pmol/μL solutions to perform binding experiments to Aβ42 with 10-, 100-, and 1000-fold molar excess of tested compound.
One mg of recombinant human β-Amyloid Peptide (1-42) from BioLegend can be reconstituted in 200 μL of Fisher Optima LC/MS grade water and vortexed vigorously to solubilize the peptide creating a 5 mg/mL solution. Samples can be then diluted to a final concentration of 44 pmol/μL prior to mixing (1:1) with test compound solution. Final concentrations were 22 pmol/μL for human β-Amyloid Peptide (1-42) and 1100 pmol/μL for test compounds.
The data acquisition was performed using a Waters time of flight mass spectrometer (Q-TOF Micro). The data was acquired using the scanning mode to allow for the detection of the peptide. Samples were infused at room temperature. The mass spectrometer conditions were maintained throughout the study to ensure consistency of the data. The Waters Q-TOF conditions were as follows:
Samples were directly infused into the mass spectrometer at a flow rate of 20 μL/min using in-build Syringe Pump and Hamilton 1 mL Syringe and the acquisition time was kept 2 minutes.
On to `O=S(=O)(O)c1nnc[nH]1` [Compound 117], for which the “Number of Molecules Bound to Aβ1-42 (# of Molecules Bound to Aβ)” value (“Number of Molecules Bound” below) was 3.

With `Cn1cc(S(=O)(=O)O)cn1` [Compound 118], the “Number of Molecules Bound” value is 1. `Cn1cnnc1S(=O)(=O)O` [Compound 119]: the “Number of Molecules Bound” value stood at 0.

`C[n+]1cccc(S(=O)(=O)[O-])c1` [Compound 120]: the “Number of Molecules Bound” value came to 8. On to `Nc1cccc(S(=O)(=O)O)c1` [Compound 121], for which the “Number of Molecules Bound” value stood at 0.

For `Nc1ccc(S(=O)(=O)O)cc1` [Compound 122], the “Number of Molecules Bound” value is on record as 0. As for `Nc1ncc(S(=O)(=O)O)s1` [Compound 124], the figure is 3; as for `NCc1ccc(S(=O)(=O)O)cc1` [Compound 125], 0. As for `Nc1ccc(N)c(S(=O)(=O)O)c1` [Compound 126], the figure is 1. In the case of `Nc1ccc(S(=O)(=O)O)c(N)c1` [Compound 127], the “Number of Molecules Bound” value worked out at 0.

For the compound `Nc1cc(S(=O)(=O)O)ccc1O` [Compound 128], the “Number of Molecules Bound” value amounted to 0.

Consider `O=S(=O)(O)c1ccc2[nH]cnc2c1` [Compound 130], for which the “Number of Molecules Bound” value was 0. In the case of `O=S(=O)(O)c1ccc2c(c1)NCC2` [Compound 131] it was 0. As for `Cn1c(S(=O)(=O)O)nc2ccccc21` [Compound 133], the figure is 0; as for `Nc1ncnc2[nH]c(S(=O)(=O)O)nc12` [Compound 134], 2. Regarding `Nc1ccc2cc(S(=O)(=O)O)ccc2c1` [Compound 135], the “Number of Molecules Bound” value is recorded as 0. `Nc1cccc2ccc(S(=O)(=O)O)cc12` [Compound 136]: the “Number of Molecules Bound” value stood at 0. In the case of `Nc1ccc(S(=O)(=O)O)c2ccccc12` [Compound 137] it was 0; in that of `Nc1cccc2c(S(=O)(=O)O)cccc12` [Compound 138], 0. In the case of `Nc1cccc2cc(S(=O)(=O)O)ccc12` [Compound 139] it was 0; in that of `Nc1ccc2c(S(=O)(=O)O)cccc2c1` [Compound 140], 0; in that of `O=C1Nc2ccc(S(=O)(=O)O)cc2CO1` [Compound 141], 0.

Consider `Nc1nc2ccc(S(=O)(=O)O)cc2s1` [Compound 142], for which the “Number of Molecules Bound” value is on record as 2. In the case of `Nc1cc(S(=O)(=O)O)cc(C(=O)O)c1O` [Compound 143] it was 0; in that of `Nc1ccc2c(S(=O)(=O)O)cccc2c1N` [Compound 144], 0. In the case of `CCCn1c(S(=O)(=O)O)nc2ccccc21` [Compound 145], the “Number of Molecules Bound” value came out at 0. Take `Nc1ccc2cc(S(=O)(=O)O)ccc2c1.O` [Compound 146]: the “Number of Molecules Bound” value is 0. As for `Cc1cc(C)[n+]2cc(S(=O)(=O)[O-])sc2n1` [Compound 148], the figure is 5; as for `Nc1ccc2ccc(S(=O)(=O)[O-])cc2c1.[Na+]` [Compound 149], 0; as for `O=S(=O)(O)c1ccc(Nc2ccccc2)cc1` [Compound 150], 0. Consider `COC(=O)c1cc(OC)c(S(=O)(=O)O)s1` [Compound 151], for which the “Number of Molecules Bound” value was found to be 0. As for `Cc1cc(C)n(-c2ccc(S(=O)(=O)O)cc2)n1` [Compound 152], the figure is 1. As for `CC[n+]1ccc(-c2cccc(S(=O)(=O)[O-])c2)o1` [Compound 153], the “Number of Molecules Bound” value was determined as 5. As for `Cc1cc(=O)n(-c2cccc(S(=O)(=O)O)c2)[nH]1` [Compound 154], the figure is 1; as for `CN(C)C(=O)[n+]1ccc(CCS(=O)(=O)[O-])cc1` [Compound 158], 0. For `Nc1ccc(Nc2ccc(N)cc2S(=O)(=O)O)cc1` [Compound 160], the “Number of Molecules Bound” value is 1. As for `O=C(O)c1cc(=O)n(-c2ccc(S(=O)(=O)O)cc2)[nH]1` [Compound 161], the figure is 0; as for `CCOC(=O)c1cnn(-c2ccc(S(=O)(=O)O)cc2)c1N` [Compound 163], 0; as for `Cc1ccc2nc(-c3ccc(N)cc3)sc2c1S(=O)(=O)O` [Compound 164], 0. As for `Cc1oc2ccc(-c3ccccc3)cc2[n+]1CCCS(=O)(=O)[O-]` [Compound 165], the figure is 1. As for `Nc1ccc(-c2ccc(N)cc2S(=O)(=O)O)c(S(=O)(=O)O)c1` [Compound 166], the “Number of Molecules Bound” value came to 2. For the compound `Nc1cc(S(=O)(=O)[O-])c2cccc(S(=O)(=O)[O-])c2c1.[Na+].[Na+]` [Compound 167], the “Number of Molecules Bound” value was 0. As for `NC1=NN(c2ccc(Oc3ccccc3)c(S(=O)(=O)O)c2)C(=O)C1` [Compound 168], the “Number of Molecules Bound” value came out at 0. As for `Nc1ccc(S(=O)(=O)O)cn1` [Compound 170], the figure is 6.

As for `Nc1ccncc1S(=O)(=O)O` [Compound 171], the “Number of Molecules Bound” value was 7. As for `Nc1nc2cc(S(=O)(=O)O)cc(N)c2o1` [Compound 172], the figure is 0.
